# Experimental data: ChEMBL document CHEMBL4321885, “Biomimetic Macrocyclic Inhibitors of Human Cathepsin D: Structure-Activity Relationship and Binding Mode Analysis” (J Med Chem, 2020)
# Calls of active or inactive are those of the source. No cut-off for these calls is given here. Non-standard residues stand in square brackets, D forms with d. Residues, ends and D or L forms follow the SMILES beside them. *: point of attachment. Sta = CC(C)C[C@H](N)[C@@H](O)CC(=O)O; Isovaleryl = CC(C)CC(=O)*
# Columns and labels:
# Renin (Homo sapiens) [1] = target: T1, Renin (Homo sapiens) (UniProt P00797); assay: Inhibition of recombinant human N-terminal FLAG-tagged renin (67 to 406 residues) expressed in HEK cells at 50 nM using Arg-Glu(EDANS)-Ile-His-Pro-Phe-His-Leu-Val-Ile-His-Thr-Lys(Dabcyl)-Arg as substrate preincubated for 10 mins followed by substrate addition and measured by FRET assay
# T1 sequence (whole entry): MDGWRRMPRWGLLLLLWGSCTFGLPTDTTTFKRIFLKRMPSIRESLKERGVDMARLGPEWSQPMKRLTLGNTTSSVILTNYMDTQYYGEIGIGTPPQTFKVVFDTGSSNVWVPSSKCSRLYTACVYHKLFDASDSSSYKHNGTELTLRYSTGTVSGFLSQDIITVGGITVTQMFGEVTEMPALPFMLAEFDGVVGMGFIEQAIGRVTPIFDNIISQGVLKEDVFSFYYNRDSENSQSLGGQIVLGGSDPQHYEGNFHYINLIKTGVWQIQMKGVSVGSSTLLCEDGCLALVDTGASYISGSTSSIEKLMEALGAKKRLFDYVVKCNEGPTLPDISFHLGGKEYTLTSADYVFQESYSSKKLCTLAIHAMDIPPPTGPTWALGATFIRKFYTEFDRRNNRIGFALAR
# Renin (Homo sapiens) [2] = target: T1, Renin (Homo sapiens); assay: Inhibition of recombinant human N-terminal FLAG-tagged renin (67 to 406 residues) expressed in HEK cells at 5 uM using Arg-Glu(EDANS)-Ile-His-Pro-Phe-His-Leu-Val-Ile-His-Thr-Lys(Dabcyl)-Arg as substrate preincubated for 10 mins followed by substrate addition and measured by FRET assay
# Ixodes ricinus = assay: Inhibition of Ixodes ricinus CatD expressed in Escherichia coli BL21(DE3) at 50 nM using Abz-Lys-Pro-Ala-Glu-Phe-Nph-Ala-Leu as substrate preincubated for 10 mins followed by substrate addition and measured by FRET assay
# [3] = target: Protease (Human immunodeficiency virus 1) (UniProt Q9YQ12); assay: Inhibition of HIV1 protease at 5 uM using Abz-Tyr-Ile-Nle-Nph-Gln-Arg as substrate preincubated for 10 mins followed by substrate addition and measured by FRET assay
# Protease (Human immunodeficiency virus 1), sequence (Q9YQ12 as listed by the source): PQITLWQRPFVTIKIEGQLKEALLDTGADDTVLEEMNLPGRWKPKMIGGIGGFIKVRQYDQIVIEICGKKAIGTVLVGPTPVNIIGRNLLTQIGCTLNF
# [4] = target: Beta-secretase 1 (Homo sapiens) (UniProt P56817); assay: Inhibition of recombinant human C-terminal 10His-tagged BACE1 expressed in mouse NS0 cells at 5 uM using Mca-Ser-Glu-Val-Asn-Leu-Asp-Ala-Glu-Phe-Arg-Lys(Dnp)-Arg-Arg as substrate preincubated for 10 mins followed by substrate addition and measured by FRET assay
# Beta-secretase 1 (Homo sapiens), sequence (P56817 whole entry): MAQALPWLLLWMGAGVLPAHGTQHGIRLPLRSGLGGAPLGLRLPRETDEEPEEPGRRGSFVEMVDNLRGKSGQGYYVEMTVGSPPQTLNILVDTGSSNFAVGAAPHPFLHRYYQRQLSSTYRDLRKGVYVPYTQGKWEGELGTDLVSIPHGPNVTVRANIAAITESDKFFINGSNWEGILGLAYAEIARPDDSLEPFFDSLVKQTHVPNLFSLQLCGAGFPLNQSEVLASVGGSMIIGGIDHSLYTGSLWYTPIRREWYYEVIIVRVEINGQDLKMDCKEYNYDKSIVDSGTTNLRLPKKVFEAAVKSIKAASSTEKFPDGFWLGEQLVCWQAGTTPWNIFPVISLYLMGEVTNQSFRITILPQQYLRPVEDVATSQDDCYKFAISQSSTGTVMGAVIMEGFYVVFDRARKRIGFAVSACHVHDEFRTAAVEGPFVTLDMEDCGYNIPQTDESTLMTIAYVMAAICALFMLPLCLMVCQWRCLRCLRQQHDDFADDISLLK
# Cathepsin D = Cathepsin D (Homo sapiens, UniProt P07339); assay: Inhibition of human placenta CatD using Abz-Lys-Pro-Ala-Glu-Phe-Nph-Ala-Leu as substrate preincubated for 10 mins followed by substrate addition and measured by FRET assay
# Cathepsin D, sequence (P07339 65-162 limits assumed): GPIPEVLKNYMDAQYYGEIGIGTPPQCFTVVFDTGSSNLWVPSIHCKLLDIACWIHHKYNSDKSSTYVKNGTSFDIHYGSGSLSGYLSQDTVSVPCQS
# Cathepsin D, sequence (P07339 169-412 limits assumed): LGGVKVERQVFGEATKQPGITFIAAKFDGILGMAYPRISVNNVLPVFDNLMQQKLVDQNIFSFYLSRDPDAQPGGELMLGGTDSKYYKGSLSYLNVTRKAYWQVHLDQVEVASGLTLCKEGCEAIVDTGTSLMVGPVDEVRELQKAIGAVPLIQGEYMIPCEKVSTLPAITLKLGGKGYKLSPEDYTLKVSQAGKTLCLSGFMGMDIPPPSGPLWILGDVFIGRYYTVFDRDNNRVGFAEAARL
# [5] = target: Protease (Human immunodeficiency virus 1) (UniProt Q9YQ12); assay: Inhibition of HIV1 protease at 50 nM using Abz-Tyr-Ile-Nle-Nph-Gln-Arg as substrate preincubated for 10 mins followed by substrate addition and measured by FRET assay
# [6] = target: Beta-secretase 1 (Homo sapiens) (UniProt P56817); assay: Inhibition of recombinant human C-terminal 10His-tagged BACE1 expressed in mouse NS0 cells at 50 nM using Mca-Ser-Glu-Val-Asn-Leu-Asp-Ala-Glu-Phe-Arg-Lys(Dnp)-Arg-Arg as substrate preincubated for 10 mins followed by substrate addition and measured by FRET assay
# [7] = target: Saccharopepsin (Saccharomyces cerevisiae S288c) (UniProt P07267); assay: Inhibition of Baker's yeast proteinase A at 50 nM using Abz-Lys-Pro-Ala-Glu-Phe-Nph-Ala-Leu as substrate preincubated for 10 mins followed by substrate addition and measured by FRET assay
# Saccharopepsin (Saccharomyces cerevisiae S288c), sequence (P07267 whole entry): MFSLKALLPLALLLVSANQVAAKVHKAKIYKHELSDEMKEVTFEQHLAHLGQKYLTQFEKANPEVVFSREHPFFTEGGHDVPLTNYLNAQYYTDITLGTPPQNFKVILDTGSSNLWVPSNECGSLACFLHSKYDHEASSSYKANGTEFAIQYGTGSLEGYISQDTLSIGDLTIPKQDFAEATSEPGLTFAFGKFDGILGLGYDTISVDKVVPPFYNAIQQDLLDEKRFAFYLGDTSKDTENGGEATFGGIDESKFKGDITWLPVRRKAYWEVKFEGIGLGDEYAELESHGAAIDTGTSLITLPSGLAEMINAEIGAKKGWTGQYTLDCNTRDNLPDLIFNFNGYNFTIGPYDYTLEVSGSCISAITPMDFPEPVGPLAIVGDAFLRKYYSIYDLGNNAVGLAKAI
Compound,inhibition (Renin (Homo sapiens) [1]),inhibition (Renin (Homo sapiens) [2]),inhibition (Ixodes ricinus),inhibition [3],inhibition [4],IC50 (Cathepsin D),inhibition [5],inhibition [6],inhibition [7]
CC(C)[C@@H]1NC(=O)C[C@H](O)[C@H](Cc2ccc(OCc3ccccc3)cc2)NC(=O)CCCCCCCCCCCNC1=O,inactive,Active,Active,Active,Active,0.055 µM,inactive,inactive,Active
CC(C)[C@@H]1NC(=O)C[C@H](O)[C@H](Cc2ccccc2)NC(=O)CCCCCCCCCCCCCCNC1=O,inactive,Active,Active,Active,Active,0.032 µM,inactive,inactive,Active
O=C1C[C@H](O)[C@H](Cc2ccccc2)NC(=O)CCCCCCCCCCCNC(=O)[C@H](C2CCCCC2)N1,inactive,Active,Active,Active,Active,0.0082 µM,inactive,inactive,Active
CC(C)[C@@H]1NC(=O)C[C@H](O)[C@H](CS)NC(=O)CCCCCCCCCCCNC1=O,inactive,Active,Active,Active,Active,0.34 µM,inactive,inactive,Active
CC(C)CC(=O)N[C@H](C(=O)N[C@H](C(=O)N[C@@H](CC(C)C)[C@@H](O)CC(=O)O)C(C)C)C(C)C (Isovaleryl-Val-Val-[Sta]-OH),,,,,,0.5 µM,,,
CC(C)C[C@@H]1NC(=O)CCCCCCCCCCCNC(=O)[C@H](C)NC(=O)C[C@@H]1O,inactive,Active,Active,Active,Active,0.31 µM,inactive,inactive,Active
C[C@@H](OCc1ccccc1)[C@@H]1NC(=O)C[C@H](O)[C@H](Cc2ccccc2)NC(=O)CCCCCCCCCCCNC1=O,inactive,Active,Active,Active,Active,0.56 µM,inactive,inactive,Active
CC(C)[C@@H]1NC(=O)C[C@H](O)[C@H](Cc2ccccc2)NC(=O)CCCCCCCCCCNC1=O,inactive,Active,Active,Active,Active,0.04 µM,inactive,inactive,Active
CC(C)[C@@H]1NC(=O)C[C@H](O)[C@H](Cc2ccc3ccccc3c2)NC(=O)CCCCCCCCCCCNC1=O,inactive,Active,Active,Active,Active,0.0006 µM,inactive,inactive,Active
CC(C)[C@@H]1NC(=O)C[C@H](O)[C@H](Cc2cscn2)NC(=O)CCCCCCCCCCCNC1=O,inactive,Active,Active,Active,Active,0.6 µM,inactive,inactive,Active
CC(C)[C@@H]1NC(=O)C[C@H](O)[C@H](CSCc2ccccc2)NC(=O)CCCCCCCCCCCNC1=O,inactive,Active,Active,Active,Active,0.02 µM,inactive,inactive,Active
CC(C)[C@@H]1NC(=O)C[C@H](O)[C@H](Cc2ccc(O)cc2)NC(=O)CCCCCCCCCCCNC1=O,inactive,Active,Active,Active,Active,0.039 µM,inactive,inactive,Active
CC(C)[C@@H]1NC(=O)C[C@H](O)[C@H](Cc2ccccc2)NC(=O)CCOCCOCCOCCNC1=O,inactive,Active,Active,Active,Active,0.85 µM,inactive,inactive,Active
CC(C)[C@@H]1NC(=O)C[C@H](O)[C@H](Cc2ccccc2)NC(=O)CCCCCCCCCCCNC1=O,inactive,Active,Active,Active,Active,0.0058 µM,inactive,inactive,Active
CC(C)CC(=O)N[C@@H](CC(C)C)[C@@H](O)CC(=O)N[C@@H](C)C(=O)O,,,,,,> 200 µM,,,
CC(C)CC(=O)N[C@@H](CC(C)C)[C@@H](O)CC(=O)N[C@@H](C)C(=O)N[C@@H](CC(C)C)[C@@H](O)CC(=O)O,,,,,,2.5 µM,,,
CC(C)[C@@H]1NC(=O)C[C@H](O)[C@H](Cc2ccc(Cl)c(Cl)c2)NC(=O)CCCCCCCCCCCNC1=O,inactive,Active,Active,Active,Active,0.0042 µM,inactive,inactive,Active
C[C@@H](O)[C@@H]1NC(=O)C[C@H](O)[C@H](Cc2ccccc2)NC(=O)CCCCCCCCCCCNC1=O,inactive,Active,Active,Active,Active,0.5 µM,inactive,inactive,Active
CC(C)[C@@H]1NC(=O)CC[C@H](Cc2ccccc2)NC(=O)CCCCCCCCCCCNC1=O,inactive,Active,Active,Active,Active,2 µM,inactive,inactive,Active
CC(C)CC(=O)N[C@H](C(=O)N[C@H](C(=O)N[C@@H](CC(C)C)[C@@H](O)CC(=O)N[C@@H](C)C(=O)O)C(C)C)C(C)C (Isovaleryl-VV[Sta]A-OH),,,,,,0.04 µM,,,
CC(C)[C@@H]1NC(=O)C[C@H](O)[C@H](Cc2ccccc2)NC(=O)CCCCCCCCCCCCNC1=O,inactive,Active,Active,Active,Active,0.0035 µM,inactive,inactive,Active
CC(C)[C@@H]1NC(=O)NC[C@H](O)[C@H](Cc2ccccc2)NC(=O)CCCCCCCCCCCNC1=O,inactive,Active,Active,Active,Active,0.021 µM,inactive,inactive,Active
